According to patent US5843925A, “Methods for inhibiting angiogenesis, proliferation of endothelial or tumor cells and tumor growth” (American Cyanamid Company, priority 1994, dated 1998):
Converted amounts (≈) assume the structure as drawn. Counter-ions that a name gives are not always drawn.

Assays:
SW620 = assay: Antiproliferative activity in human tumor cell lines (SW620); assay type: cell-based; conditions: SW-620, SW620 colon tumor cell line
Protocol: (§1) PROTOCOLS 1, 2, and 3 are described in greater detail hereinbelow. In general, according to PROTOCOLS 1 and 2, the target ABAE and/or Human Tumor cells are exposed to the compound of Formula I for 48 hours. PROTOCOL 3 exposes ABAE cells to the compounds for 4 days. A detailed description of the protocol is as follows:
(§2) The antiproliferative activity of the compounds of Formula I of the present invention is evaluated in a panel comprised of human tumor cell lines and an adult bovine aortic endothelial cell line (ABAE). The human tumor cell lines are from
(§3) All cell lines are maintained in log phase in RPMI 1640 media, supplemented with 5% fetal calf serum, penicillin/streptomycin and 2 mM L-glutamine. Cultures are renewed after 20 passages with cells from a fresh stock of batch-frozen early passage cells. Cell lines are routinely checked for mycoplasma contamination (Genprobe). In a laminar flow hood, cells (1-5×10^4) are plated into 96-well microtiter plates in a volume of 0.1 ml/well with a bulk microtiter dispenser (Denley). […] At this concentration, dimethylsulfoxide has no effect on cell growth. Compounds are added using a Tomtec dispenser which simultaneously dispenses from one 96-well plate, containing the drug dilutions, to the plates containing the cells. After two days of continuous drug exposure, 50% cold trichloroacetic acid (TCA) is added to 10% final concentration to fix the cells, and after 60 minutes at 4° C., the TCA is aspirated and the plates are washed 5 times with deionized water using a microtiter plate washer. The number of cells on the plate are quantitated using a protein dye-binding assay (Monks et al., 1991). A 0.4% solution of the dye, sulforhodamine B, in glacial acetic acid is added to the plates, and the plates are washed 5 times with 1% glacial acetic acid using the automatic plate washed. The bound stain is solubilized with 0.1 ml of 10 mM Tris base. The optical densities are read from an automatic spectrophotometric plate reader (Dynatech) directly to a main frame computer (VAX 8600).
(§4) Positive controls, that include standard chemotherapeutic drugs (i.e., adriamycin, cisplatin, etc.), are included in every experiment.
(§5) Background optical density measurements (complete media-cells, and complete media+drug-cells) are automatically subtracted from the appropriate control and test wells. Mean values and standard errors are determined from duplicate wells. A measure is also made of the optical density at time when the drugs are added. The number of cells after treatment (P), as % of control, is calculated for every concentration of drug, as follows: [formula] wherein: T is optical density measurement for treated cells after 48 hours;
(§6) C is optical density measurement for untreated cells after 48 hours;
(§7) Co is optical density measurement for cells at the time of drug addition.
(§8) IC50 of growth inhibition is calculated from the sets of P values using the RS-1 data package (BBN Software).
(§9) Antiproliferative Activity in Human Tumor Cell Lines
(§10) The antiproliferative activity of the compounds of Formula I is evaluated in the panel comprised of human tumor cell lines as listed in PROTOCOL 1. This assay is a slight modification of PROTOCOL 1. The modifications include:
(§11) 1) each concentration for each compound is tested in a single well;
(§12) 2) compounds are tested at 20, 4, 0.8, 0.16 microgram/ml and additionally in some experiments at 100 and 0.32 microgram/ml;
(§13) 3) samples are pipetted into a 96-well plate for each of the cell lines by a Beckman Biomek 1000 SL robot;
(§14) 4) after fixing with TCA each well is washed with 0.35 ml distilled water twice, not five times;
(§15) 5) after staining with sulforhodamine B each well is washed 3 times, not five times;
(§16) 6) the growth inhibition (I) as % of control, is calculated using the RS-1 data package (BBN Software), for every concentration of drug, as follows: [formula] wherein: T is optical density measurement for treated cells after 48 hours; […]

A2780/DDP = assay: Antiproliferative activity in human tumor cell lines (A2780/DDP); assay type: cell-based; conditions: A2780/DDP ovarian tumor cell line
Protocol: as §1, §2
(§17) Cultures are renewed after 20 passages with cells from a fresh stock of batch-frozen early passage cells. Cell lines are routinely checked for mycoplasma contamination (Genprobe). In a laminar flow hood, cells (1-5×10^4) are plated into 96-well microtiter plates in a volume of 0.1 ml/well with a bulk microtiter dispenser (Denley). […] Compounds are added using a Tomtec dispenser which simultaneously dispenses from one 96-well plate, containing the drug dilutions, to the plates containing the cells. After two days of continuous drug exposure, 50% cold trichloroacetic acid (TCA) is added to 10% final concentration to fix the cells, and after 60 minutes at 4° C., the TCA is aspirated and the plates are washed 5 times with deionized water using a microtiter plate washer. […] A 0.4% solution of the dye, sulforhodamine B, in […] is added to the plates, and the plates are washed 5 times with 1% glacial acetic acid using the automatic plate washed. The bound stain is solubilized with 0.1 ml of 10 mM Tris base. The optical densities are read from an automatic spectrophotometric plate reader (Dynatech) directly to a main frame computer (VAX 8600).
as §4, §5, §6, §7, §8, §9, §10, §11, §12, §13, §14, §15
(§18) 6) the growth inhibition (I) as % of control, is calculated using the RS-1 data package (BBN Software), for every concentration of drug, as follows: [formula] wherein: T is optical density measurement for treated cells after 48 hours;
(§19) 7) IC50 of growth inhibition is determined graphically from dose response curves, as is known in the art.

A2780S = assay: Antiproliferative activity in human tumor cell lines (A2780S); assay type: cell-based; conditions: A2780S ovarian tumor cell line
Protocol: as §1, §2, §17, §4, §5, §6, §7, §8, §9, §10, §11, §12, §13, §14, §15, §18, §19

Human Tumor cell lines = assay: Antiproliferative activity in panel of human tumor cell lines (PROTOCOL 1 and PROTOCOL 2); assay type: cell-based; conditions: for IC50: Homo sapiens, average over the tumor cell lines of Table 3
Protocol: (§20) The antiproliferative activity of the compounds of Formula I in an Adult Bovine Aortic Endothelial (ABAE) cell line and in Human Tumor cells lines is evaluated in three similar assays that measure growth inhibition. The assays are identified as follows:
as §1, §2, §3, §4, §5, §6, §7, §8, §9, §10, §11, §12, §13, §14
5) after staining with sulforhodamine B each well is washed 3 times, not five times; […]

HTB 161 = assay: Antiproliferative activity in human tumor cell lines (HTB 161); assay type: cell-based
Protocol: as §1, §2, §17, §4, §5, §6, §7, §8, §9, §10, §11, §12, §13, §14, §15, §18, §19

MIP = assay: Antiproliferative activity in human tumor cell lines (MIP); assay type: cell-based; conditions: MIP colon tumor cell line
Protocol: as §1, §2, §3, §4, §5, §6, §7, §8, §9, §10, §11, §12, §13, §14, §15, §16

CACO2 = assay: Antiproliferative activity in human tumor cell lines (CACO2); assay type: cell-based; conditions: Caco-2, CACO2 colon tumor cell line
Protocol: as §1, §2, §3, §4, §5, §6, §7, §8, §9, §10, §11, §12, §13, §14, §15, §16

angiogenesis = conditions: Cancer Research 51, 672-675, Brem et al; cited from earlier work
[1] = system: Adult Bovine Aortic Endothelial (ABAE) cell line; assay: Antiproliferative activity in Adult Bovine Aortic Endothelial (ABAE) cell line, PROTOCOL 3; assay type: cell-based; conditions: 4 day assay (Protocol 3)
Protocol: as §20, §1
Antiproliferative Activity in Adult Bovine Aortic Endothelial (ABAE) Cell Line
ABAE cells are grown in DMEM media (Mediatech Washington, D.C.) supplemented with 10% calf serum (Hyclone). ABAE cells are plated in 24-well dishes at 8,000 cells/well, followed by the addition of increasing concentrations of 7-[substituted amino]-9-[(substituted glycyl)amido]-6-demethyl-6-deoxytetra-cyclines. After four days, the cells are detached and counted. […] The growth inhibition (I) as % of control is calculated as follows: [formula] wherein: Nc is the number of cells in untreated wells;
Nt is the number of cells in treated wells;
No is the number of plated cells.
IC50 of growth inhibition is determined from the sets of I values plotted by Kaleidograph software (Abelbeck Software).
Table 2 presents the results depicting the antiproliferative activity of the compounds of Formula I against an adult bovine aortic endothelial cell line (ABAE), as evaluated by PROTOCOL 1 and PROTOCOL 3. The results are presented in terms of IC50 and are as follows.

[2] = highest concentration, human tumor cell lines

With `CN(C)c1cc(NC(=O)CN2CCCC2)c(O)c2c1CC1CC3[C@H](N(C)C)C(O)=C(C(N)=O)C(=O)[C@@]3(O)C(O)=C1C2=O` (stereo partly drawn) [Example 3, [7S-(7α,10aα)]-N-[9-(Aminocarbonyl)-4,7-bis(dimethylamino)-5,5a,6,6a,7,10,10a,12-octahydro-1,8-10a,11-tetrahydroxy-10,12-dioxo-2-naphthacenyl]-1-pyrrolidineacetamide dihydrochloride] the IC50 (SW620) was 2.3 µg/mL, the IC50 (A2780/DDP) was 2.7 µg/mL and the IC50 (A2780S) was 2.4 µg/mL. It also gave an IC50 (Human Tumor cell lines) of 2.4 µg/mL, an IC50 (HTB 161) of 2.3 µg/mL and an IC50 (MIP) of 2.45 µg/mL.

With `CCCN(CCC)c1cc(NC(=O)CN(C)C)c(O)c2c1CC1CC3[C@H](N(C)C)C(O)=C(C(N)=O)C(=O)[C@@]3(O)C(O)=C1C2=O` (stereo partly drawn) [Example 6, [4S-(4α,12aα)]-4-(Dimethylamino)-9-[[(dimethylamino)acetyl]amino]-7-(dipropylamino)-1,4,4a,5,5a,6,11,12a-octahydro-3,10,12,12a-tetrahydroxy-1,11-dioxo-2-naphthacenecarboxamide sulfate (1:1)] the IC50 (SW620) was 3 µg/mL, the IC50 (A2780/DDP) was 3 µg/mL and the IC50 (CACO2) was 8 µg/mL. The IC50 (A2780S) was 3.5 µg/mL, the IC50 (Human Tumor cell lines) was 5.1 µg/mL and the IC50 (HTB 161) was 3 µg/mL. It also gave an IC50 (MIP) of 10 µg/mL.

`CCCCN(CC1CC1)c1cc(NC(=O)CN(C)C)c(O)c2c1CC1CC3C(N(C)C)C(O)=C(C(N)=O)C(=O)C3(O)C(O)=C1C2=O` (stereo not drawn) [Example 7, 7-[Butyl(cyclopropylmethyl)amino]-4-(dimethylamino)-9 [[(dimethylamino)acetyl]amino]-1,4,4a,5,5a,6,-11,12a-octahydro-3,10,12,12a-tetrahydroxy-1,11-dioxo-2-naphthacenecarboxamide sulfate (1:2)] showed an IC50 (SW620) of 3.5 µg/mL, an IC50 (A2780/DDP) of 3 µg/mL and an IC50 (CACO2) of 10 µg/mL. The IC50 (A2780S) was 3 µg/mL, the IC50 (Human Tumor cell lines) was 5.1 µg/mL and the IC50 (HTB 161) was 3 µg/mL. It also gave an IC50 (MIP) of 8 µg/mL.

With `CC(C)CN(CC(C)C)c1cc(NC(=O)CN(C)C)c(O)c2c1CC1CC3[C@H](N(C)C)C(O)=C(C(N)=O)C(=O)[C@@]3(O)C(O)=C1C2=O` (stereo partly drawn) [Example 8, [4S-(4α,12aα)]-7-[Bis(2-methylpropyl)amino]-4-(dimethylamino)9-[[(dimethylamino)acetyl]amino]-1,4,4a,5,5a,6,11,12a-octahydro-3,10,12,12a-tetrahydroxy-1,11-dioxo-2-naphthacenecarboxamide sulfate] the IC50 (SW620) was 1.5 µg/mL, the IC50 (A2780/DDP) was 1.5 µg/mL and the IC50 (CACO2) was 6 µg/mL. For the same compound, the IC50 (A2780S) was 2.5 µg/mL, the IC50 (Human Tumor cell lines) was 4 µg/mL and the “cell growth at highest concentration” value (Human Tumor cell lines; [2]) was “the cells continue to grow”. The dead floating cells (Human Tumor cell lines; [2]) was “Dead floating cells were not observed”, the “inhibition of cell growth” value (Human Tumor cell lines; highest concentrations, 6 human tumor cell lines, FIG. 2) was “no 100% inhibition of cell growth” and the IC50 (HTB 161) was 2.5 µg/mL. It also gave an IC50 (MIP) of 10 µg/mL.

In the case of `CN(C)c1ccc(O)c2c1C[C@H]1C[C@H]3[C@H](N(C)C)C(O)=C(C(N)=O)C(=O)[C@@]3(O)C(O)=C1C2=O` [Minocycline, reference compound], the “inhibition of angiogenesis vs combination therapy of heparin and cortisone” value (angiogenesis) is listed as “inhibits angiogenesis to an extent comparable to that of the combination therapy of heparin and cortisone”, the IC50 (CACO2) is listed as 9 µg/mL (≈ 19.7 µM) and the “activity upon incubation with cells” value [1] is listed as “losing its activity upon incubation with cells”.
